Marks after values point to notes of the source that are not given here.
Tested on: chicken embryos
Experiment: Metabolic profiling of allantoic fluid (GC-MS, LC-MS, OPLS-DA)
Type: in vivo, Gallus gallus domesticus
Settings: 150 μg/egg
Protocol: Controls were injected with 20 μL vehicle only (DMSO).
Plasma was collected and stored at -70°C.
Metabolites in allantoic fluid and blood plasma were analyzed using gas chromatography-mass spectrometry (GC-MS) and liquid chromatography-mass spectrometry (LC-MS) as described in S1 Methods. Prior to GC-MS and LC-MS analysis, allantoic fluid (100 μL) and blood plasma (50 μL) were extracted. To each sample, 900 μL (allantoic fluid) or 450 μL (blood plasma) of extraction buffer (90/10 v/v methanol:water) including all internal standards were added. Standards for GC-MS were proline, succinic acid, glutamic acid, salicylic acid, alpha-ketoglutarate, putrescine, myristic acid, hexadecanoic acid, cholesterol, and sucrose. Standards for LC-MS were Val-Tyr-Val, Leu-enkephalin, sulfadimethoxine and reserpine. Samples were homogenized by shaking in a bead mill at a frequency of 30 Hz for 3 minutes and proteins were precipitated at +4°C on ice. The samples were centrifuged at +4°C, 14000 rpm, for 10 min. Then, 200 μL supernatant was transferred to a GC microvial and 200 μL was transferred to an LC microvial, and solvents were evaporated. Samples from the four replicate experiments were analyzed using in chronological order and within each replicate experiment the run order of the individual samples was randomized.
Multivariate statistical analyses of metabolite profiles were performed using the software package SIMCA-P version 13.0 (Umetrics, Umeå, Sweden). Data was centered and scaled to variance 1 (UV scaling) prior to modelling. To reduce unintended systematic variation caused by sample processing and instrument drift, GC-MS and LC-MS metabolite amounts (expressed as the area under the chromatographic peak) were normalized by Orthogonal Partial Least Squares analysis (O2PLS) prior to multivariate data analysis. O2PLS finds common (predictive) and unique (orthogonal) variation in two data matrices. If applied to find the common variation between the data matrix containing the measured metabolite concentrations and a matrix containing only the internal standards, the only common (predictive) variation expected is due to the unintended systematic variation. By deleting the contribution of the predictive latent variables, that variation can be removed from the data. Models obtained after this normalization contain in general less latent variables, and this simplification helps when deciding on the number of latent variables to be used. Following normalization, GC-MS and LC-MS data were analyzed together. Initially, a global Principal Component Analysis (PCA) was performed to get an overview of groups and trends and to identify outliers. Projections to latent structures by means of Orthogonal Partial Least Squares Discriminant Analysis (OPLS-DA) was used to model the relationship between the X-matrix (metabolite concentrations) and the Y matrix (class, i.e. exposure group or sex), and to find x-variables that were related to class belonging. OPLS-DA is a supervised prediction and regression method that rotates the projection plane to find the maximum covariance between the data and the class assignment. All groups were first analyzed together in a 5-class OPLS-DA and then each exposure group was analyzed against the control group in a 2-class OPLS-DA. Sex differences were analyzed both using the whole data set and in each group separately using 2-class OPLS-DA, with females and males as the two classes. Only variables with 80% or more nonzero values were included in the statistical models. […] The validity of each model was also checked using CV-ANOVA (ANOVA of the cross-validated residuals). A significance level of p < 0.05 was used. For each model, R ^2 X, R ^2 Y and Q ^2 values were calculated, where R ^2 X is a measure of the fraction of x variation modeled in the extracted latent variables, R ^2 Y is a measure of the fraction of y variation modeled and Q ^2 is an estimate of the predictive ability of the model and is calculated by cross-validation. […]

[1] = GC, tentative 2-Oxovaleric acid

Question: Which results are given for `CN(CCOc1ccc(CC2SC(=O)NC2=O)cc1)c1ccccn1` (centres unmarked) [Rosiglitazone, rosiglitazone, reference compound]?
Answer: Mean concentration relative to control, feature Win004_C08 (GC): 1.2**; Mean concentration relative to control, feature Win005_C07 (GC): 1.2*; Mean concentration relative to control, feature Win008_C06 (GC): 1.7***; Mean concentration relative to control, feature Win022_C01 (GC): 2.2***; Mean concentration relative to control, feature Win023_C06 (GC): 1.8*; Mean concentration relative to control, feature win006_C01 (GC): 2.3***; Mean concentration relative to control, feature Win008_C07 (GC, tentative 1-Aminocyclopropanecarboxylic acid): 1.1; Mean concentration relative to control, feature Win023_C03 (GC, tentative 2-Oxoglutaric acid): 2.5***; Mean concentration relative to control, feature Win007_C09 [1]: 1.3***; Mean concentration relative to control, feature Win008_C05 [1]: 1.4***; Mean concentration relative to control, feature Win018_C04 (GC, tentative 3-Amino-2-piperidone): 1; Mean concentration relative to control, feature Win007_C03 (GC, tentative 3-Hydroxybutanoic acid): 1.0; Mean concentration relative to control, feature Win042_C02 (GC, tentative Cystathionine): 1.1; Mean concentration relative to control, feature Win009_C03 (GC, tentative Ketoleucine): 1.3**; Mean concentration relative to control, feature Win008_C04 (GC, tentative Malonic acid): 1.0; Mean concentration relative to control, feature Win005_C03 (GC, tentative Oxalic acid): 0.7**; Mean concentration relative to control, feature Win013_C05 (GC, tentative Succinic acid): 1.1*; Mean concentration relative to control, feature 134.0239@1.1350567 (LC): 1.4*; Mean concentration relative to control, feature 145.0538@3.072527 (LC): 1.2; Mean concentration relative to control, feature 147.0328@3.0722888 (LC): 1.2; Mean concentration relative to control, feature 160.0323@1.1950632 (LC): 1.2***; Mean concentration relative to control, feature 173.0488@3.0734746 (LC): 1.2; Mean concentration relative to control, feature 176.0952@1.3890611 (LC): 0.4*; Mean concentration relative to control, feature 178.0428@1.7582192 (LC): 1.3**; Mean concentration relative to control, feature 180.0048@4.421465 (LC): 0.9***; Mean concentration relative to control, feature 189.1159@1.9209185 (LC): 0.7**; Mean concentration relative to control, feature 197.0639@2.1181405 (LC): 1.2***; Mean concentration relative to control, feature 201.012@3.046474 (LC): 1.1; Mean concentration relative to control, feature 202.0429@2.9548414 (LC): 1.3***; Mean concentration relative to control, feature 205.0533@4.421879 (LC): 0.9***; Mean concentration relative to control, feature 214.016@2.1190732 (LC): 1.2**; Mean concentration relative to control, feature 226.0107@4.421457 (LC): 0.9***; Mean concentration relative to control, feature 236.0816@3.0720985 (LC): 1.2; Mean concentration relative to control, feature 241.0551@2.3510706 (LC): 1.3***; Mean concentration relative to control, feature 243.1118@2.1537287 (LC): 0.7***; Mean concentration relative to control, feature 244.9972@4.421603 (LC): 0.96*; Mean concentration relative to control, feature 245.1563@2.2907295 (LC): 0.7*; Mean concentration relative to control, feature 250.0981@3.072492 (LC): 1.2; Mean concentration relative to control, feature 262.0978@2.7961144 (LC): 1.3*; Mean concentration relative to control, feature 263.0855@2.2847009 (LC): 1.4**; Mean concentration relative to control, feature 270.0441@1.1407775 (LC): 0.7*; Mean concentration relative to control, feature 278.0928@3.0723689 (LC): 1.2; Mean concentration relative to control, feature 279.1248@2.796395 (LC): 1.4*; Mean concentration relative to control, feature 280.1425@2.730277 (LC): 1.1**; Mean concentration relative to control, feature 288.1166@2.9551322 (LC): 1.7**; Mean concentration relative to control, feature 289.1012@3.249983 (LC): 1.2; Mean concentration relative to control, feature 289.173@7.5030584 (LC): 0.7***; Mean concentration relative to control, feature 294.1242@2.3692534 (LC): 0.7***; Mean concentration relative to control, feature 302.0508@3.0722616 (LC): 1.1; Mean concentration relative to control, feature 305.1682@5.353517 (LC): 1.2; Mean concentration relative to control, feature 305.1684@5.2955093 (LC): 1.2; Mean concentration relative to control, feature 308.073@4.4211636 (LC): 0.9***; Mean concentration relative to control, feature 310.1181@1.5090439 (LC): 0.7***; Mean concentration relative to control, feature 316.0389@3.0725708 (LC): 1.2; Mean concentration relative to control, feature 320.0626@3.0729218 (LC): 1.1; Mean concentration relative to control, feature 325.1114@2.1190624 (LC): 1.6***; Mean concentration relative to control, feature 325.1115@2.3554378 (LC): 1.5**; Mean concentration relative to control, feature 333.1335@2.8639288 (LC): 0.7***; Mean concentration relative to control, feature 333.2005@6.5291867 (LC): 1.1; Mean concentration relative to control, feature 335.1866@4.508565 (LC): 0.7***; Mean concentration relative to control, feature 337.1651@1.8737898 (LC): 1.6***; Mean concentration relative to control, feature 344.1424@2.348947 (LC): 1.5**; Mean concentration relative to control, feature 348.0553@3.0730357 (LC): 1.1; Mean concentration relative to control, feature 349.1651@2.4087605 (LC): 1; Mean concentration relative to control, feature 357.1997@6.9691257 (LC): 0.8*; Mean concentration relative to control, feature 371.1513@3.0009465 (LC): 1.4**; Mean concentration relative to control, feature 375.1819@3.672254 (LC): 0.9; Mean concentration relative to control, feature 394.167@3.9552917 (LC): 0.7*; Mean concentration relative to control, feature 414.1482@2.118972 (LC): 1.5***; Mean concentration relative to control, feature 466.0837@2.1187525 (LC): 1.5***; Mean concentration relative to control, feature 488.0753@4.419585 (LC): 0.8***; Mean concentration relative to control, feature 498.1003@2.1184251 (LC): 1.4***; Mean concentration relative to control, feature 507.1682@2.1238236 (LC): 1.3*; Mean concentration relative to control, feature 580.1426@3.0726147 (LC): 1.3; Mean concentration relative to control, feature 582.1578@2.1747615 (LC): 1.8***; Mean concentration relative to control, feature 588.1751@2.1182237 (LC): 1.5***; Mean concentration relative to control, feature 594.1337@3.0724604 (LC): 1.3; Mean concentration relative to control, feature 604.1486@2.1174603 (LC): 1.5***; Mean concentration relative to control, feature 623.183@2.1249466 (LC): 1.8***; Mean concentration relative to control, feature 668.2625@6.4379454 (LC): 1.04**; Mean concentration relative to control, feature 155.0353@0.6447272 (LC, suggested C3H10NO4P): 0.4*; Mean concentration relative to control, feature 345.0497@1.1234403 (LC, suggested C10H12N5O7P): 1.6***; Mean concentration relative to control, feature 337.0259@4.4213357 (LC, suggested C13H11N3O4S2): 0.9***; Mean concentration relative to control, feature 344.1427@2.1164653 (LC, suggested C13H20N4O7): 1.6***; Mean concentration relative to control, feature 331.184@6.373359 (LC, suggested C13H25N5O5): 1; Mean concentration relative to control, feature 361.2026@5.6644735 (LC, suggested C16H31N3O4S): 0.7**

From PMC4666608, “Metabolic Profiling of Chicken Embryos Exposed to Perfluorooctanoic Acid (PFOA) and Agonists to Peroxisome Proliferator-Activated Receptors” (PLoS ONE, 2015)
